Experimental data reported in patent US10695337B2, “Piperidin-4-yl azetidine derivatives as JAK1 inhibitors” (Incyte Corporation, priority 2010, dated 2020).

Target: human JAK1 (a.a. 837-1142)
Assay: In vitro JAK kinase assay (HTRF, phosphorylation of a biotinylated peptide), JAK1
Format: biochemical
Conditions: measured at 1 mM ATP; JAK2 IC50 / JAK1 IC50
Method: Compounds herein were tested for inhibitory activity of JAK targets according to the following in vitro assay described in Park et al., Analytical Biochemistry 1999, 269, 94-104. The catalytic domains of human JAK1 (a.a. 837-1142), Jak2 (a.a. 828-1132) and Jak3 (a.a. 781-1124) with an N-terminal His tag were expressed using baculovirus in insect cells and purified. The catalytic activity of JAK1, JAK2 or JAK3 was assayed by measuring the phosphorylation of a biotinylated peptide. The phosphorylated peptide was detected by homogenous time resolved fluorescence (HTRF). […] Reactions were carried out at room temperature for 1 hr and then stopped with 20 μL 45 mM EDTA, 300 nM SA-APC, 6 nM Eu-Py20 in assay buffer (Perkin Elmer, Boston, Mass.). Binding to the Europium labeled antibody took place for 40 minutes and HTRF signal was measured on a Fusion plate reader (Perkin Elmer, Boston, Mass.).

| Compound | IC50 Ratio JAK2/JAK1 |
| --- | --- |
| COc1c(F)c(F)cc(C(=O)N2CCC(N3CC(CC#N)(n4cc(-c5ncnc6[nH]ccc56)cn4)C3)CC2)c1F [Example 32, {3-[4-(7H-pyrrolo[2,3-d]pyrimidin-4-yl)-1H-pyrazol-1-yl]-1-[1-(2,4,5-trifluoro-3-methoxybenzoyl)piperidin-4-yl]azetidin-3-yl}acetonitrile] | 4.4 |
| COc1cc(OC)cc(C(=O)N2CCC(N3CC(CC#N)(n4cc(-c5ncnc6[nH]ccc56)cn4)C3)CC2)c1 [Example 33, {1-[1-(3,5-dimethoxybenzoyl)piperidin-4-yl]-3-[4-(7H-pyrrolo[2,3-d]pyrimidin-4-yl)-1H-pyrazol-1-yl]azetidin-3-yl}acetonitrile] | 0.5 |
| N#CCC1(n2cc(-c3ncnc4[nH]ccc34)cn2)CN(C2CCN(C(=O)c3ccc(F)c(Cl)c3)CC2)C1 [Example 34, {1-[1-(3-chloro-4-fluorobenzoyl)piperidin-4-yl]-3-[4-(7H-pyrrolo[2,3-d]pyrimidin-4-yl)-1H-pyrazol-1-yl]azetidin-3-yl}acetonitrile] | 6.0 |
| COc1cc(F)cc(C(=O)N2CCC(N3CC(CC#N)(n4cc(-c5ncnc6[nH]ccc56)cn4)C3)CC2)c1 [Example 36, {1-[1-(3-fluoro-5-methoxybenzoyl)piperidin-4-yl]-3-[4-(7H-pyrrolo[2,3-d]pyrimidin-4-yl)-1H-pyrazol-1-yl]azetidin-3-yl}acetonitrile] | 2.3 |
| COc1ccc(F)cc1C(=O)N1CCC(N2CC(CC#N)(n3cc(-c4ncnc5[nH]ccc45)cn3)C2)CC1 [Example 38, {1-[1-(5-fluoro-2-methoxybenzoyl)piperidin-4-yl]-3-[4-(7H-pyrrolo[2,3-d]pyrimidin-4-yl)-1H-pyrazol-1-yl]azetidin-3-yl}acetonitrile] | 5.7 |
| COc1cccc(F)c1C(=O)N1CCC(N2CC(CC#N)(n3cc(-c4ncnc5[nH]ccc45)cn3)C2)CC1 [Example 39, {1-[1-(2-fluoro-6-methoxybenzoyl)piperidin-4-yl]-3-[4-(7H-pyrrolo[2,3-d]pyrimidin-4-yl)-1H-pyrazol-1-yl]azetidin-3-yl}acetonitrile] | 3.2 |
| N#CCC1(n2cc(-c3ncnc4[nH]ccc34)cn2)CN(C2CCN(C(=O)c3cc(F)ccc3F)CC2)C1 [Example 43, {1-[1-(2,5-difluorobenzoyl)piperidin-4-yl]-3-[4-(7H-pyrrolo[2,3-d]pyrimidin-4-yl)-1H-pyrazol-1-yl]azetidin-3-yl}acetonitrile] | 5.0 |
| N#CCC1(n2cc(-c3ncnc4[nH]ccc34)cn2)CN(C2CCN(C(=O)c3ccc(F)c(F)c3F)CC2)C1 [Example 46, {3-[4-(7H-pyrrolo[2,3-d]pyrimidin-4-yl)-1H-pyrazol-1-yl]-1-[1-(2,3,4-trifluorobenzoyl)piperidin-4-yl]azetidin-3-yl}acetonitrile] | 6.3 |
| N#CCC1(n2cc(-c3ncnc4[nH]ccc34)cn2)CN(C2CCN(C(=O)c3cc(F)c(F)cc3F)CC2)C1 [Example 48, {3-[4-(7H-pyrrolo[2,3-d]pyrimidin-4-yl)-1H-pyrazol-1-yl]-1-[1-(2,4,5-trifluorobenzoyl)piperidin-4-yl]azetidin-3-yl}acetonitrile] | 6.5 |
| N#CCC1(n2cc(-c3ncnc4[nH]ccc34)cn2)CN(C2CCN(C(=O)c3c(F)cc(F)cc3F)CC2)C1 [Example 49, {3-[4-(7H-pyrrolo[2,3-d]pyrimidin-4-yl)-1H-pyrazol-1-yl]-1-[1-(2,4,6-trifluorobenzoyl)piperidin-4-yl]azetidin-3-yl}acetonitrile] | 6.5 |
| N#CCC1(n2cc(-c3ncnc4[nH]ccc34)cn2)CN(C2CCN(C(=O)c3ccc(C(F)(F)F)c(F)c3)CC2)C1 [Example 52, {1-{1-[3-fluoro-4-(trifluoromethyl)benzoyl]piperidin-4-yl}-3-[4-(7H-pyrrolo[2,3-d]pyrimidin-4-yl)-1H-pyrazol-1-yl]azetidin-3-yl}acetonitrile] | 4.4 |
| N#CCC1(n2cc(-c3ncnc4[nH]ccc34)cn2)CN(C2CCN(C(=O)c3cc(F)c(F)c(F)c3F)CC2)C1 [Example 54, {3-[4-(7H-pyrrolo[2,3-d]pyrimidin-4-yl)-1H-pyrazol-1-yl]-1-[1-(2,3,4,5-tetrafluorobenzoyl)piperidin-4-yl]azetidin-3-yl}acetonitrile] | 9.1 |

Second part, the compound after the results:

| IC50 Ratio JAK2/JAK1 | Compound |
| --- | --- |
| 7.2 | N#CCC1(n2cc(-c3ncnc4[nH]ccc34)cn2)CN(C2CCN(C(=O)c3cc(F)cc(Br)c3)CC2)C1 [Example 29, {1-[1-(3-bromo-5-fluorobenzoyl)piperidin-4-yl]-3-[4-(7H-pyrrolo[2,3-d]pyrimidin-4-yl)-1H-pyrazol-1-yl]azetidin-3-yl}acetonitrile] |
| 2.8 | N#CCC1(n2cc(-c3ncnc4[nH]ccc34)cn2)CN(C2CCN(C(=O)c3cc(Cl)sc3Cl)CC2)C1 [Example 30, {1-{1-[(2,5-dichloro-3-thienyl)carbonyl]piperidin-4-yl}-3-[4-(7H-pyrrolo[2,3-d]pyrimidin-4-yl)-1H-pyrazol-1-yl]azetidin-3-yl}acetonitrile] |
| 1.9 | COc1cccc(C(=O)N2CCC(N3CC(CC#N)(n4cc(-c5ncnc6[nH]ccc56)cn4)C3)CC2)c1 [Example 31, {1-[1-(3-methoxybenzoyl)piperidin-4-yl]-3-[4-(7H-pyrrolo[2,3-d]pyrimidin-4-yl)-1H-pyrazol-1-yl]azetidin-3-yl}acetonitrile] |
| 6.9 | N#CCC1(n2cc(-c3ncnc4[nH]ccc34)cn2)CN(C2CCN(C(=O)c3ccc(F)c(F)c3)CC2)C1 [Example 35, {1-[1-(3,4-difluorobenzoyl)piperidin-4-yl]-3-[4-(7H-pyrrolo[2,3-d]pyrimidin-4-yl)-1H-pyrazol-1-yl]azetidin-3-yl}acetonitrile] |
| 2.1 | COc1cc(C(=O)N2CCC(N3CC(CC#N)(n4cc(-c5ncnc6[nH]ccc56)cn4)C3)CC2)cc(Cl)n1 [Example 37, {1-[1-(2-chloro-6-methoxyisonicotinoyl)piperidin-4-yl]-3-[4-(7H-pyrrolo[2,3-d]pyrimidin-4-yl)-1H-pyrazol-1-yl]azetidin-3-yl}acetonitrile] |
| 4.8 | COc1cc(F)ccc1C(=O)N1CCC(N2CC(CC#N)(n3cc(-c4ncnc5[nH]ccc45)cn3)C2)CC1 [Example 40, {1-[1-(4-fluoro-2-methoxybenzoyl)piperidin-4-yl]-3-[4-(7H-pyrrolo[2,3-d]pyrimidin-4-yl)-1H-pyrazol-1-yl]azetidin-3-yl}acetonitrile] |
| 4.9 | N#CCC1(n2cc(-c3ncnc4[nH]ccc34)cn2)CN(C2CCN(C(=O)c3cccc(F)c3F)CC2)C1 [Example 41, {1-[1-(2,3-difluorobenzoyl)piperidin-4-yl]-3-[4-(7H-pyrrolo[2,3-d]pyrimidin-4-yl)-1H-pyrazol-1-yl]azetidin-3-yl}acetonitrile] |
| 6.7 | N#CCC1(n2cc(-c3ncnc4[nH]ccc34)cn2)CN(C2CCN(C(=O)c3ccc(F)cc3F)CC2)C1 [Example 42, {1-[1-(2,4-difluorobenzoyl)piperidin-4-yl]-3-[4-(7H-pyrrolo[2,3-d]pyrimidin-4-yl)-1H-pyrazol-1-yl]azetidin-3-yl}acetonitrile] |
| 2.9 | N#CCC1(n2cc(-c3ncnc4[nH]ccc34)cn2)CN(C2CCN(C(=O)c3c(F)cccc3F)CC2)C1 [Example 44, {1-[1-(2,6-difluorobenzoyl)piperidin-4-yl]-3-[4-(7H-pyrrolo[2,3-d]pyrimidin-4-yl)-1H-pyrazol-1-yl]azetidin-3-yl}acetonitrile] |
| 3.1 | N#CCC1(n2cc(-c3ncnc4[nH]ccc34)cn2)CN(C2CCN(C(=O)c3c(F)cccc3C(F)(F)F)CC2)C1 [Example 45, {1-{1-[2-fluoro-6-(trifluoromethyl)benzoyl]piperidin-4-yl}-3-[4-(7H-pyrrolo[2,3-d]pyrimidin-4-yl)-1H-pyrazol-1-yl]azetidin-3-yl}acetonitrile] |
| 3.7 | N#CCC1(n2cc(-c3ncnc4[nH]ccc34)cn2)CN(C2CCN(C(=O)c3c(F)ccc(F)c3F)CC2)C1 [Example 47, {3-[4-(7H-pyrrolo[2,3-d]pyrimidin-4-yl)-1H-pyrazol-1-yl]-1-[1-(2,3,6-trifluorobenzoyl)piperidin-4-yl]azetidin-3-yl}acetonitrile] |
| 6.9 | COc1c(Br)cc(C(=O)N2CCC(N3CC(CC#N)(n4cc(-c5ncnc6[nH]ccc56)cn4)C3)CC2)cc1Br [Example 50, {1-[1-(3,5-dibromo-4-methoxybenzoyl)piperidin-4-yl]-3-[4-(7H-pyrrolo[2,3-d]pyrimidin-4-yl)-1H-pyrazol-1-yl]azetidin-3-yl}acetonitrile] |
| 6.3 | CN(C)c1ccc(C(=O)N2CCC(N3CC(CC#N)(n4cc(-c5ncnc6[nH]ccc56)cn4)C3)CC2)c(F)c1C#N [Example 51, 3-[(4-{3-(cyanomethyl)-3-[4-(7H-pyrrolo[2,3-d]pyrimidin-4-yl)-1H-pyrazol-1-yl]azetidin-1-yl}piperidin-1yl)carbonyl]-6-(dimethylamino)-2-fluorobenzonitrile] |
| 9.4 | N#CCC1(n2cc(-c3ncnc4[nH]ccc34)cn2)CN(C2CCN(C(=O)c3cc(Cl)cc(C(F)(F)F)n3)CC2)C1 [Example 53, {1-(1-{[4-chloro-6-(trifluoromethyl)pyridin-2-yl]carbonyl}piperidin-4-yl)-3-[4-(7H-pyrrolo[2,3-d]pyrimidin-4-yl)-1H-pyrazol-1-yl]azetidin-3-yl}acetonitrile] |
